Data on eleven compounds can be found in ChEMBL document CHEMBL1201862, “PubChem BioAssay data set” (2004).

Some test systems named below: A549; ACHN; BT-549; HCT-116; HL-60; NCI-H226; NCI-H23; NCI-H522; NCI/ADR-RES; OVCAR-8; RPMI-8226; SF-539; SK-MEL-28; SK-OV-3; SR; TK-10; U-251; UACC-257; SNB-75; RXF 393.
Common to all, as to assay: NCI anticancer screen, dose series, 48 h

“And” between values parts separate entries of the source, which are not always exact repeats. Identical values can stand only once.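 Grown in 96-well plates, cells were treated for 48 hours with each compound at five concentrations. Insufficient inhibition: endpoint recorded as highest concentration tested. GI50: concentration for 50% inhibition of growth.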 The source made the active and inactive calls. Rule as the data show it: active = GI50 up to about 1.1 µM and inactive = higher.

As to `COc1nc(C(Cl)(Cl)Cl)c(Cl)c(O)c1Cl`, the GI50 with A549, in the test with ACHN, in the test with BT-549, in the test with HCT-116, in the test with HL-60 and in the test on NCI-H226 was > 100 µM (inactive) throughout. Moreover, the GI50 is > 100 µM (inactive) in the test with NCI-H23; 49.3 µM (inactive) in the test on NCI-H522; > 100 µM (inactive) in the test on NCI/ADR-RES; > 100 µM (inactive) with OVCAR-8; > 100 µM (inactive) in the test on RPMI-8226; > 100 µM (inactive) in the test with SF-539. The GI50 with SK-MEL-28, in the test with SK-OV-3, in the test on SR, in the test on TK-10, in the test with U-251 and in the test on UACC-257 was > 100 µM (inactive) each time.
Take `Cc1nc2cc(Cl)c(N)cc2[nH]1`: the GI50 in the test with A549, with ACHN, in the test with BT-549, in the test on HCT-116, in the test with HL-60 and in the test on NCI-H226 was > 100 µM (inactive) throughout. The GI50 was > 100 µM (inactive) with NCI-H23; > 100 µM (inactive) in the test on NCI-H522; > 100 µM (inactive) with NCI/ADR-RES; > 100 µM (inactive) with OVCAR-8; > 100 µM (inactive) in the test on RPMI-8226; > 10 µM (inactive) in the test on SF-539. The GI50 with SK-MEL-28, with SK-OV-3, in the test on SNB-75, in the test with SR, in the test on TK-10 and with U-251 was > 100 µM (inactive) throughout. In addition, the GI50 in the test on UACC-257 is > 100 µM (inactive).
For the compound `Clc1ccc(Nc2ncco2)cc1Cl`, the GI50 in the test on A549, with ACHN, with BT-549, in the test on HCT-116, with NCI-H226 and in the test on NCI-H23 was > 10 µM (inactive) in each case. Also, the GI50 with NCI-H522, with NCI/ADR-RES, in the test with OVCAR-8, in the test on SF-539, in the test on SK-MEL-28 and in the test on SK-OV-3 was > 10 µM (inactive) in each case. For the same compound, the GI50 in the test with SNB-75, in the test on SR, in the test with TK-10, with U-251 and with UACC-257 was > 10 µM (inactive) each time.
Consider `C=CCn1c(-c2cc(C(C)(C)C)c(O)c(C(C)(C)C)c2)cs/c1=N\C(P(=O)(O)O)P(=O)(O)O`, for which the GI50 with A549 was > 100 µM (inactive); in the test on ACHN, > 100 µM (inactive); with BT-549, > 100 µM (inactive); in the test on HCT-116, 14.7 µM (inactive); with HL-60, 19.9 µM (inactive); with NCI-H226, > 100 µM (inactive). For the same compound, the GI50 in the test with NCI-H23, in the test with NCI/ADR-RES, with OVCAR-8, in the test on RPMI-8226, in the test with SF-539 and in the test on SK-MEL-28 was > 100 µM (inactive) in each case. The GI50 in the test with SK-OV-3, with SNB-75, in the test with SR, with TK-10 and with U-251 was > 100 µM (inactive) throughout.
Turning to `O=c1c(/C=C/c2c(O)ccc3ccccc23)nnc2sc(-c3cccc([N+](=O)[O-])c3)nn12`, the GI50 in the test on ACHN was 5.12 µM (inactive); in the test on BT-549 it was 17.2 µM (inactive); in the test on HCT-116 it was 4.98 µM (inactive); with HL-60 it was 2.62 µM (inactive); in the test with NCI-H23, 19.1 µM (inactive); in the test on NCI-H522, 9.33 µM (inactive). The GI50 in the test on NCI/ADR-RES is 12.3 µM (inactive); with OVCAR-8 it was 13.7 µM (inactive); in the test with RPMI-8226, 14.6 µM (inactive); in the test on RXF 393, 19.4 µM (inactive); in the test with SK-MEL-28 it was > 100 µM (inactive); in the test with SK-OV-3, 30 µM (inactive). The GI50 with SR is 4.38 µM (inactive); with TK-10, 9.29 µM (inactive); with U-251, 7.6 µM (inactive); in the test with UACC-257 it was 13.2 µM (inactive).
On to `CCNC(=O)CCC(C)[C@H]1CCC2C3C(C[C@H](OC(C)=O)[C@@]21C)[C@@]1(C)CCC2(C[C@H]1C[C@H]3OC(C)=O)OOC1(CCC(C)CC1)OO2` (stereo partly drawn), for which the GI50 with A549 is 1.5 µM (inactive) and 1.49 µM (inactive); with ACHN, 1.55 µM (inactive) and 1.63 µM (inactive); in the test with BT-549, 2.03 µM (inactive) and 1.57 µM (inactive); in the test with HCT-116, 1.94 µM (inactive) and 1.79 µM (inactive); in the test with HL-60, 1.49 µM (inactive) and 1.97 µM (inactive); in the test with NCI-H226, 1.52 µM (inactive) and 1.69 µM (inactive). Also, the GI50 in the test with NCI-H23 is 2.13 µM (inactive) and 2.2 µM (inactive); with NCI-H522, 1.47 µM (inactive) and 1.22 µM (inactive); with NCI/ADR-RES, 3.31 µM (inactive) and 1.73 µM (inactive); in the test on OVCAR-8, 2.61 µM (inactive) and 1.51 µM (inactive); in the test with SF-539 it was 1.97 µM (inactive) and 2.75 µM (inactive); in the test with SK-MEL-28, 2.9 µM (inactive) and 3.47 µM (inactive). For the same compound, the GI50 in the test on SK-OV-3 is 4.02 µM (inactive) and 2.54 µM (inactive); with SNB-75 it was 1.59 µM (inactive) and 1.95 µM (inactive); in the test on SR it was 1.17 µM (inactive) and 1.03 µM (active); in the test with TK-10 it was 2.3 µM (inactive) and 2.43 µM (inactive); in the test with U-251, 2.09 µM (inactive) and 1.6 µM (inactive); in the test on UACC-257, 4.63 µM (inactive) and 2.62 µM (inactive).
`Cc1c2c(n(CCc3ccccc3)c1C)NN=C(C#N)S2(=O)=O`: the GI50 is > 100 µM (inactive) in the test on A549; > 100 µM (inactive) in the test with ACHN; > 100 µM (inactive) with BT-549; > 100 µM (inactive) in the test on HCT-116; > 100 µM (inactive) in the test with NCI-H23; 71.1 µM (inactive) in the test on NCI-H522. Also, the GI50 in the test on NCI/ADR-RES, in the test with OVCAR-8, in the test on RPMI-8226, in the test on SF-539, with SK-MEL-28 and in the test with SK-OV-3 was > 100 µM (inactive) throughout. Moreover, the GI50 in the test on SNB-75 was > 100 µM (inactive); with SR, 6.53 µM (inactive); in the test on TK-10, > 100 µM (inactive); in the test with U-251, > 100 µM (inactive); in the test on UACC-257, > 100 µM (inactive).
For `CC(C)C1C(=O)N2CCCC2C2(O)OC(NC(=O)C3C=C4c5cccc6[nH]cc(c56)CC4N(C)C3)(C(C)C)C(=O)N12` (stereo not drawn), the GI50 in the test with A549 is 20.7 µM (inactive); in the test on ACHN it was 18.9 µM (inactive); with BT-549, 25.4 µM (inactive); in the test with HCT-116 it was 17.9 µM (inactive); in the test on HL-60, 27 µM (inactive); with NCI-H23, 26.9 µM (inactive). In addition, the GI50 in the test on NCI-H522 is 21 µM (inactive); in the test on NCI/ADR-RES it was 21.1 µM (inactive); in the test on OVCAR-8, 19.2 µM (inactive); with RPMI-8226, 16.2 µM (inactive); in the test with SF-539, 19.8 µM (inactive); in the test with SK-MEL-28, 25.5 µM (inactive). Further, the GI50 in the test with SNB-75 is 15.3 µM (inactive); in the test with SR, 32.4 µM (inactive); in the test on TK-10 it was 21.8 µM (inactive); in the test on U-251 it was 26.4 µM (inactive); in the test with UACC-257, 28.7 µM (inactive).
Regarding `COc1cccc(C2SCC(=O)N2c2ccc(-c3ccc(-n4c(-c5ccccc5)nc5ccccc5c4=O)cc3)cc2)c1OC` (stereo not drawn), the GI50 was 83.8 µM (inactive) in the test with A549; > 100 µM (inactive) with ACHN; 42 µM (inactive) in the test with BT-549; 59.8 µM (inactive) with HCT-116; 73.8 µM (inactive) in the test on HL-60; 74.1 µM (inactive) in the test on NCI-H226. For the same compound, the GI50 was > 100 µM (inactive) with NCI-H23; > 100 µM (inactive) with NCI-H522; > 100 µM (inactive) in the test on NCI/ADR-RES; > 100 µM (inactive) in the test with OVCAR-8; > 100 µM (inactive) in the test with RPMI-8226; 32.6 µM (inactive) in the test on SF-539. Further, the GI50 was > 100 µM (inactive) with SK-MEL-28; > 10 µM (inactive) with SK-OV-3; 22 µM (inactive) in the test with SNB-75; 60.1 µM (inactive) with SR; > 100 µM (inactive) with TK-10; 34.6 µM (inactive) in the test on U-251. Besides, the GI50 in the test with UACC-257 is > 100 µM (inactive).
With `CN(Cc1cnc2nc(N)nc(N)c2n1)c1ccc(C(=O)NC(CCS(=O)(=O)O)C(=O)O)cc1` (stereo not drawn), the GI50 with A549 was 0.421 µM (active); with ACHN it was 0.527 µM (active); with BT-549, > 100 µM (inactive); in the test on HCT-116, 0.0745 µM (active); in the test on HL-60, < 0.0336 µM (active); with NCI-H226 it was 15.7 µM (inactive). In addition, the GI50 is 1.88 µM (inactive) in the test with NCI-H23; 0.527 µM (active) in the test with NCI-H522; 2.31 µM (inactive) with NCI/ADR-RES; 21.9 µM (inactive) with OVCAR-8; 0.824 µM (active) in the test with SF-539; > 100 µM (inactive) in the test with SK-MEL-28. In addition, the GI50 with SK-OV-3 was > 100 µM (inactive); with SR it was 0.136 µM (active); with TK-10, > 100 µM (inactive); in the test on UACC-257, > 100 µM (inactive).
As for `NC(=O)C1CCCN1C(=O)N(CCCl)N=O` (stereo not drawn), the GI50 in the test with A549, with ACHN, with BT-549, with HCT-116, in the test with HL-60 and in the test on NCI-H226 was > 100 µM (inactive) each time. Also, the GI50 with NCI-H23, with NCI-H522, in the test with NCI/ADR-RES, with OVCAR-8, in the test on RPMI-8226 and in the test on SF-539 was > 100 µM (inactive) each time. Further, the GI50 in the test with SK-MEL-28 is > 100 µM (inactive); in the test on SK-OV-3, > 100 µM (inactive); with SNB-75, 14.9 µM (inactive); with SR it was > 100 µM (inactive); in the test with TK-10 it was > 100 µM (inactive); with U-251, > 100 µM (inactive). Further, the GI50 in the test on UACC-257 is > 100 µM (inactive).
